Experimental data published in the NIST ThermoML archive (doi:10.1016/j.jct.2016.09.013).

Settings: Liquid; for viscosity: Concentric cylinders viscometry

CCn1cc[n+](C)c1.COP(=O)([O-])OC [1-ethyl-3-methylimidazolium dimethylphosphate]
101.33 kPa
Settings	viscosity [mPa·s]
303.15 K	186
313.15 K	107.5
323.15 K	67.1
333.15 K	44.64
343.15 K	31.27
353.15 K	22.85
363.15 K	17.29
373.15 K	13.47

Settings	mass density [kg/m3]
303.15 K, 101.33 kPa, Vibrating tube method	1214.4
312 K, 10000 kPa, Bellows volumetry	1212.6
312 K, 20000 kPa, Bellows volumetry	1216.9
312 K, 30000 kPa, Bellows volumetry	1221
312 K, 40000 kPa, Bellows volumetry	1224.9
312 K, 50000 kPa, Bellows volumetry	1228.8
312 K, 60000 kPa, Bellows volumetry	1232.5
313.15 K, 101.33 kPa, Vibrating tube method	1207.6
323.15 K, 101.33 kPa, Vibrating tube method	1200.9
331.7 K, 10000 kPa, Bellows volumetry	1199.7
331.7 K, 20000 kPa, Bellows volumetry	1204.1
331.7 K, 30000 kPa, Bellows volumetry	1208.5
331.7 K, 40000 kPa, Bellows volumetry	1212.6
331.7 K, 50000 kPa, Bellows volumetry	1216.6
331.7 K, 60000 kPa, Bellows volumetry	1220.4
331.7 K, 70000 kPa, Bellows volumetry	1224.1
331.7 K, 80000 kPa, Bellows volumetry	1227.8
331.7 K, 90000 kPa, Bellows volumetry	1231.3
331.7 K, 100000 kPa, Bellows volumetry	1234.7
331.7 K, 110000 kPa, Bellows volumetry	1238.1
331.7 K, 120000 kPa, Bellows volumetry	1241.3
331.7 K, 130000 kPa, Bellows volumetry	1244.5
331.7 K, 140000 kPa, Bellows volumetry	1247.6
331.7 K, 150000 kPa, Bellows volumetry	1250.8
331.7 K, 160000 kPa, Bellows volumetry	1253.7
331.7 K, 170000 kPa, Bellows volumetry	1256.7
331.7 K, 180000 kPa, Bellows volumetry	1259.5
331.7 K, 190000 kPa, Bellows volumetry	1262.3
331.7 K, 200000 kPa, Bellows volumetry	1265.2
333.15 K, 101.33 kPa, Vibrating tube method	1194.3
343.15 K, 101.33 kPa, Vibrating tube method	1187.6
351.7 K, 10000 kPa, Bellows volumetry	1186.8
351.7 K, 20000 kPa, Bellows volumetry	1191.5
351.7 K, 30000 kPa, Bellows volumetry	1196
351.7 K, 40000 kPa, Bellows volumetry	1200.3
351.7 K, 50000 kPa, Bellows volumetry	1204.5
351.7 K, 60000 kPa, Bellows volumetry	1208.5
351.7 K, 70000 kPa, Bellows volumetry	1212.4
351.7 K, 80000 kPa, Bellows volumetry	1216.2
351.7 K, 90000 kPa, Bellows volumetry	1219.8
351.7 K, 100000 kPa, Bellows volumetry	1223.3
351.7 K, 110000 kPa, Bellows volumetry	1226.9
351.7 K, 120000 kPa, Bellows volumetry	1230.4
351.7 K, 130000 kPa, Bellows volumetry	1233.6
351.7 K, 140000 kPa, Bellows volumetry	1236.9
351.7 K, 150000 kPa, Bellows volumetry	1240
351.7 K, 160000 kPa, Bellows volumetry	1243.2
351.7 K, 170000 kPa, Bellows volumetry	1246.2
351.7 K, 180000 kPa, Bellows volumetry	1249.1
351.7 K, 190000 kPa, Bellows volumetry	1252
351.7 K, 200000 kPa, Bellows volumetry	1255
353.15 K, 101.33 kPa, Vibrating tube method	1181.1
363.15 K, 101.33 kPa, Vibrating tube method	1174.5
372.4 K, 10000 kPa, Bellows volumetry	1174.1
372.4 K, 20000 kPa, Bellows volumetry	1179
372.4 K, 30000 kPa, Bellows volumetry	1182.8
372.4 K, 40000 kPa, Bellows volumetry	1188.3
372.4 K, 50000 kPa, Bellows volumetry	1192.6
372.4 K, 60000 kPa, Bellows volumetry	1196.9
372.4 K, 70000 kPa, Bellows volumetry	1200.9
372.4 K, 80000 kPa, Bellows volumetry	1204.9
372.4 K, 90000 kPa, Bellows volumetry	1208.7
372.4 K, 100000 kPa, Bellows volumetry	1212.4
372.4 K, 110000 kPa, Bellows volumetry	1216
372.4 K, 120000 kPa, Bellows volumetry	1219.5
372.4 K, 130000 kPa, Bellows volumetry	1223
372.4 K, 140000 kPa, Bellows volumetry	1226.3
372.4 K, 150000 kPa, Bellows volumetry	1229.6
372.4 K, 160000 kPa, Bellows volumetry	1232.8
372.4 K, 170000 kPa, Bellows volumetry	1235.9
372.4 K, 180000 kPa, Bellows volumetry	1238.9
372.4 K, 190000 kPa, Bellows volumetry	1242
372.4 K, 200000 kPa, Bellows volumetry	1244.9
373.15 K, 101.33 kPa, Vibrating tube method	1168.1
391.9 K, 10000 kPa, Bellows volumetry	1161.7
391.9 K, 20000 kPa, Bellows volumetry	1166.8
391.9 K, 30000 kPa, Bellows volumetry	1171.8
391.9 K, 40000 kPa, Bellows volumetry	1176.6
391.9 K, 50000 kPa, Bellows volumetry	1181.2
391.9 K, 60000 kPa, Bellows volumetry	1185.6
391.9 K, 70000 kPa, Bellows volumetry	1189.9
391.9 K, 80000 kPa, Bellows volumetry	1194
391.9 K, 90000 kPa, Bellows volumetry	1198
391.9 K, 100000 kPa, Bellows volumetry	1201.8
391.9 K, 110000 kPa, Bellows volumetry	1205.6
391.9 K, 120000 kPa, Bellows volumetry	1209.1
391.9 K, 130000 kPa, Bellows volumetry	1212.7
391.9 K, 140000 kPa, Bellows volumetry	1216.1
391.9 K, 150000 kPa, Bellows volumetry	1219.5
391.9 K, 160000 kPa, Bellows volumetry	1222.8
391.9 K, 170000 kPa, Bellows volumetry	1226
391.9 K, 180000 kPa, Bellows volumetry	1229.1
391.9 K, 190000 kPa, Bellows volumetry	1232.2
391.9 K, 200000 kPa, Bellows volumetry	1235.3

CCCCn1cc[n+](C)c1.COP(=O)([O-])OC [1-butyl-3-methyl-1H-imidazolium dimethylphosphate]
101.33 kPa
Settings	viscosity [mPa·s]
293.15 K	760.4
303.15 K	369.3
313.15 K	198.8
323.15 K	116.4
333.15 K	72.97
343.15 K	48.45
353.15 K	33.76
363.15 K	24.48
373.15 K	18.37

Settings	mass density [kg/m3]
293.15 K, 101.33 kPa, Vibrating tube method	1167.3
303.15 K, 101.33 kPa, Vibrating tube method	1160.2
311.4 K, 10000 kPa, Bellows volumetry	1159.3
311.4 K, 20000 kPa, Bellows volumetry	1163.7
311.4 K, 30000 kPa, Bellows volumetry	1168.1
311.4 K, 40000 kPa, Bellows volumetry	1172.2
311.4 K, 50000 kPa, Bellows volumetry	1176.4
311.4 K, 60000 kPa, Bellows volumetry	1180.3
311.4 K, 70000 kPa, Bellows volumetry	1183.9
311.4 K, 80000 kPa, Bellows volumetry	1187.7
311.4 K, 90000 kPa, Bellows volumetry	1191.3
311.4 K, 100000 kPa, Bellows volumetry	1194.7
311.4 K, 110000 kPa, Bellows volumetry	1198.1
311.4 K, 120000 kPa, Bellows volumetry	1201.4
311.4 K, 130000 kPa, Bellows volumetry	1204.7
311.4 K, 140000 kPa, Bellows volumetry	1207.7
311.4 K, 150000 kPa, Bellows volumetry	1210.8
311.4 K, 160000 kPa, Bellows volumetry	1213.7
311.4 K, 170000 kPa, Bellows volumetry	1216.7
311.4 K, 180000 kPa, Bellows volumetry	1219.6
311.4 K, 190000 kPa, Bellows volumetry	1222.5
311.4 K, 200000 kPa, Bellows volumetry	1225.3
313.15 K, 101.33 kPa, Vibrating tube method	1153.4
323.15 K, 101.33 kPa, Vibrating tube method	1146.8
331.3 K, 10000 kPa, Bellows volumetry	1146.1
331.3 K, 20000 kPa, Bellows volumetry	1150.8
331.3 K, 30000 kPa, Bellows volumetry	1155.4
331.3 K, 40000 kPa, Bellows volumetry	1159.8
331.3 K, 50000 kPa, Bellows volumetry	1164.2
331.3 K, 60000 kPa, Bellows volumetry	1168.3
331.3 K, 70000 kPa, Bellows volumetry	1172.1
331.3 K, 80000 kPa, Bellows volumetry	1176
331.3 K, 90000 kPa, Bellows volumetry	1179.6
331.3 K, 100000 kPa, Bellows volumetry	1183.1
331.3 K, 110000 kPa, Bellows volumetry	1186.6
331.3 K, 120000 kPa, Bellows volumetry	1190.1
331.3 K, 130000 kPa, Bellows volumetry	1193.4
331.3 K, 140000 kPa, Bellows volumetry	1196.6
331.3 K, 150000 kPa, Bellows volumetry	1199.8
331.3 K, 160000 kPa, Bellows volumetry	1202.9
331.3 K, 170000 kPa, Bellows volumetry	1205.9
331.3 K, 180000 kPa, Bellows volumetry	1208.9
331.3 K, 190000 kPa, Bellows volumetry	1212.6
331.3 K, 200000 kPa, Bellows volumetry	1214.8
333.15 K, 101.33 kPa, Vibrating tube method	1140.3
343.15 K, 101.33 kPa, Vibrating tube method	1133.7
351.6 K, 10000 kPa, Bellows volumetry	1133.7
351.6 K, 20000 kPa, Bellows volumetry	1138.4
351.6 K, 30000 kPa, Bellows volumetry	1143.3
351.6 K, 40000 kPa, Bellows volumetry	1147.9
351.6 K, 50000 kPa, Bellows volumetry	1152.4
351.6 K, 60000 kPa, Bellows volumetry	1156.7
351.6 K, 70000 kPa, Bellows volumetry	1160.9
351.6 K, 80000 kPa, Bellows volumetry	1164.9
351.6 K, 90000 kPa, Bellows volumetry	1168.6
351.6 K, 100000 kPa, Bellows volumetry	1172.3
351.6 K, 110000 kPa, Bellows volumetry	1175.9
351.6 K, 120000 kPa, Bellows volumetry	1179.7
351.6 K, 130000 kPa, Bellows volumetry	1183.1
351.6 K, 140000 kPa, Bellows volumetry	1186.4
351.6 K, 150000 kPa, Bellows volumetry	1189.6
351.6 K, 160000 kPa, Bellows volumetry	1192.8
351.6 K, 170000 kPa, Bellows volumetry	1196.1
351.6 K, 180000 kPa, Bellows volumetry	1199.1
351.6 K, 190000 kPa, Bellows volumetry	1202.1
351.6 K, 200000 kPa, Bellows volumetry	1205.1
353.15 K, 101.33 kPa, Vibrating tube method	1127.2
363.15 K, 101.33 kPa, Vibrating tube method	1120.7
371.6 K, 10000 kPa, Bellows volumetry	1120.8
371.6 K, 20000 kPa, Bellows volumetry	1126.1
371.6 K, 30000 kPa, Bellows volumetry	1131.3
371.6 K, 40000 kPa, Bellows volumetry	1136.2
371.6 K, 50000 kPa, Bellows volumetry	1140.9
371.6 K, 60000 kPa, Bellows volumetry	1145.4
371.6 K, 70000 kPa, Bellows volumetry	1149.7
371.6 K, 80000 kPa, Bellows volumetry	1153.9
371.6 K, 90000 kPa, Bellows volumetry	1157.9
371.6 K, 100000 kPa, Bellows volumetry	1161.8
371.6 K, 110000 kPa, Bellows volumetry	1165.7
371.6 K, 120000 kPa, Bellows volumetry	1169.4
371.6 K, 130000 kPa, Bellows volumetry	1173.1
371.6 K, 140000 kPa, Bellows volumetry	1176.4
371.6 K, 150000 kPa, Bellows volumetry	1179.7
371.6 K, 160000 kPa, Bellows volumetry	1183
371.6 K, 170000 kPa, Bellows volumetry	1186.3
371.6 K, 180000 kPa, Bellows volumetry	1189.4
371.6 K, 190000 kPa, Bellows volumetry	1192.5
371.6 K, 200000 kPa, Bellows volumetry	1195.6
373.15 K, 101.33 kPa, Vibrating tube method	1114.2
